From patent US10195185B2, “3-(1H-imidazo[4,5-C]pyridin-2-yl)-1H-pyrazolo[4,3-B]pyridines and therapeutic uses thereof” (Samumed, LLC, priority 2015, dated 2019)

Experiments:
Assay type in all cases: cell-based
[1] = tested on: IL-6 in human monocyte cell line (THP-1 cells); experiment: IL-6 inhibition in LPS-stimulated THP-1 cells (HTRF); settings: IL-6 in LPS-stimulated THP-1 cells; for EC50: HTRF; for inhibition at 10 µM: read-out: percent inhibition in brackets beside EC50 >10 μM
Procedure: Human monocyte cell line (THP-1 cells; Catalog # TIB-202, ATCC, Manassas, Va.) were cultured in Roswell Park Memorial Institute (RPMI) 1640 Medium (Catalog #21870-100, Buffalo, N.Y.) with 1% L-glutamine, 1% HEPES, 1% Sodium Pyruvate, 2% Sodium Bicarbonate supplemented with 100 units/mL penicillin, 50 μg/mL streptomycin, 2-mercaptoethanol (0.05 mM) [basal medium] and 10% fetal bovine serum (Catalog #16140089, Life Technologies, Carlsbad, Calif.) at 37° C. and 5% CO2.
THP-1 cells were cultured in basal media with 1% FBS for 24 hours before the start of the assay. Each compound was dissolved in DMSO as a 10 mM stock and used to prepare compound source plates. Serial dilution (1:3, 10-point dose-response curves starting from 10 μM) and compound transfer was performed using the ECHO 550 (Labcyte, Sunnyvale, Calif.) into 384-well white low volume assay plates (Greiner Bio-One) with appropriate DMSO backfill for a final DMSO concentration of 0.1%. THP-1 cells were plated at 5000 cells/well in the 384-well plates and incubated at 37° C. for 2 h. 500 ng/mL of LPS was added after 2 hours and cells were incubated for another 22 hours at 37° C. Plates were spun in a centrifuge for 1 minute at […] and a mixture of anti-IL6 XL665, and anti-IL6 Cryptate diluted in reconstitution buffer (Cisbio Inc.) was added to each well. Following incubation for 3 hrs at room temperature, Homogeneous Time-Resolved Fluorescence (HTRF) was measured using the Envision (Perkin Elmer) at 665 nm and […]. The ratio of fluorescence at 665 nm to 620 nm was used as a readout for IL6 quantification. All samples were processed in duplicate. Readings were normalized to DMSO treated cells and normalized activities were utilized for EC50 calculations using the dose-response log (inhibitor) vs. response-variable slope (four parameters) nonlinear regression feature available in GraphPad Prism 5.0 (or Dotmatics). For EC50 of >10 μM, the percent inhibition at 10 μM is provided.

SW480 colon cancer cells = experiment: Cell viability assay (CellTiter-Blue), four days; settings: Homo sapiens, 96 h; for EC50: CellTiter-Blue cell viability; for inhibition at 10 µM: read-out: percent inhibition at 10 μM (given for EC50 of >10 μM)
Procedure: Representative compounds were screened using the following assay procedure to assess the effect on cell viability as described below.
Each compound was dissolved in DMSO as a 10 mM stock and used to prepare compound source plates. Serial dilution (1:3, 8-point dose-response curves from 10 μM to 0.0045 μM) and compound transfer was performed using the ECHO 550 (Labcyte, Sunnyvale, Calif.) into 96-well clear bottom, black-walled plates (Corning-Costar).
Approximately 2×10^3 SW480 colon cancer cells were seeded into each well and allowed to incubate in the presence or absence of compound for four days at 37° C./5% CO2. Eight replicates of DMSO-treated cells served as controls and cells treated with compound were performed in duplicate.
After incubation, 20 μL of CellTiter-Blue (Promega) was added to each well allowed to incubate for approximately 3 hours. This reagent was a buffered solution which contains resazurin, metabolically active cells were able to reduce rezarurin (blue) into resorufin (pink) which was highly fluorescent. This measured fluorescence was used as a readout for cell viability.
After incubation, the plates were read at Ex 560 nm Em 590 nm (Cytation 3, BioTek). Dose-response curves were generated and EC50 concentration values were calculated using non-linear regression curve fit in the GraphPad Prism (San Diego, Calif.) or Dotmatics' Studies Software (Bishops Stortford, UK). For EC50 of >10 μM, the percent inhibition at 10 μM is provided.

[2] = tested on: Wnt activity (Wnt-responsive human Sp5 promoter, TCF/LEF binding sites) in SW480 colon carcinoma cells; experiment: Wnt activity screening assay: Sp5-Luc luciferase reporter gene in SW480 cells; settings: for EC50: 10-point dose-response from 10 μM, incubated overnight; for inhibition at 10 µM: given for EC50 of >10 μM, read-out: percent inhibition at 10 μM
From the text: The screening assay for Wnt activity is described as follows. Reporter cell lines can be generated by stably transducing cancer cell lines (e.g., colon cancer) or primary cells (e.g., IEC-6 intestinal cells) with a lentiviral construct that includes a Wnt-responsive promoter driving expression of the firefly luciferase gene.
SW480 colon carcinoma cells were transduced with a lentiviral vector expressing luciferase with a human Sp5 promoter consisting of a sequence of eight TCF/LEF binding sites. SW480 cells stably expressing the Sp5-Luc reporter gene and a hygromycin resistance gene were selected by treatment with 150 μg/mL of hygromycin for 7 days. These stably transduced SW480 cells were expanded in cell culture and used for all further screening activities. Each compound was dissolved in DMSO as a 10 mM stock and used to prepare compound source plates. Serial dilution (1:3, 10-point dose-response curves starting from 10 μM) and compound transfer was performed using the ECHO 550 (Labcyte, Sunnyvale, Calif.) into 384-well white solid bottom assay plates (Greiner Bio-One) with appropriate DMSO backfill for a final DMSO concentration of 0.1%. For Sp5-Luc reporter gene assays, the cells were plated at 4,000 cells/well in 384-well plates with medium containing 1% fetal bovine serum and incubated overnight at 37° C. and 5% CO2. Following incubation, 20 μl of BrightGlo luminescence reagent (Promega) was added to each well of the 384-well assay plates. The plates were placed on an orbital shaker for 2 min and then luminescence was quantified using the Envision (Perkin Elmer) plate reader. Readings were normalized to DMSO only treated cells, and normalized activities were utilized for EC50 calculations using the dose-response log (inhibitor) vs. response-variable slope (four parameters) nonlinear regression feature available in GraphPad Prism 5.0 (or Dotmatics). For EC50 of >10 μM, the percent inhibition at 10 μM is provided.

Row | SMILES | EC50 [1] | inhibition at 10 µM [1] | EC50 (SW480 colon cancer cells) | EC50 [2] | inhibition at 10 µM (SW480 colon cancer cells) | inhibition at 10 µM [2]
1 | Cn1cc(-c2ccc3[nH]nc(-c4nc5c(-c6cccs6)nccc5[nH]4)c3n2)cn1 [Compound 700, 5-(1-Methyl-1H-pyrazol-4-yl)-3-(4-(thiophen-2-yl)-1H-imidazo[4,5-c]pyridin-2-yl)-1H-pyrazolo[4,3-b]pyridine] | > 10 µM | 0% | 0.775 µM | 0.456 µM | – | –
2 | Cn1cc(-c2ccc3[nH]nc(-c4nc5c(-c6ccc7c(c6)OCO7)nccc5[nH]4)c3n2)c(CO)n1 [Compound 1151, (4-(3-(4-(Benzo[d][1,3]dioxol-5-yl)-1H-imidazo[4,5-c]pyridin-2-yl)-1H-pyrazolo [4,3-b]pyridin-5-yl)-1-methyl-1H-pyrazol-3-yl)methanol] | > 10 µM | 0% | > 10 µM | > 10 µM | 3.7% | 33.9%
3 | c1cc2[nH]c(-c3n[nH]c4ccc(-c5cn[nH]c5)nc34)nc2cn1 [Compound 651, 3-(1H-Imidazo[4,5-c]pyridin-2-yl)-5-(1H-pyrazol-4-yl)-1H-pyrazolo[4,3-b]pyridine] | > 10 µM | 0% | > 10 µM | > 10 µM | 13.5% | 22.3%
4 | COc1cccc(-c2nccc3[nH]c(-c4n[nH]c5ccc(-c6cncc(NC(=O)Cc7ccccc7)c6)nc45)nc23)c1 [Compound 1000, N-(5-(3-(4-(3-methoxyphenyl)-1H-imidazo[4,5-c]pyridin-2-yl)-1H-pyrazolo [4,3-b]pyridin-5-yl)pyridin-3-yl)-2-phenylacetamide] | > 10 µM | 11.4% | > 10 µM | > 10 µM | 25.5% | 31.1%
5 | O=C(Nc1cncc(-c2ccc3[nH]nc(-c4nc5c(N6CCCCC6)nccc5[nH]4)c3n2)c1)C1CC1 [Compound 188, N-(5-(3-(4-(Piperidin-1-yl)-1H-imidazo[4,5-c]pyridin-2-yl)-1H-pyrazolo [4,3-b]pyridin-5-yl)pyridin-3-yl)cyclopropanecarboxamide] | > 10 µM | 15.9% | > 10 µM | > 10 µM | 10.5% | 19%
6 | CC(C)(C)C(=O)Nc1cncc(-c2ccc3[nH]nc(-c4nc5c(-c6ccc(F)cc6)nccc5[nH]4)c3n2)c1 [Compound 36, N-(5-(3-(4-(4-Fluorophenyl)-1H-imidazo[4,5-c]pyridin-2-yl)-1H-pyrazolo [4,3-b]pyridin-5-yl)pyridin-3-yl)pivalamide] | > 10 µM | 0% | 3.59 µM | 3.35 µM | – | –
7 | Cn1cc(-c2ccc3[nH]nc(-c4nc5c(-c6ccc(F)cc6)nccc5[nH]4)c3n2)c(CO)n1 [Compound 1128, (4-(3-(4-(4-Fluorophenyl)-1H-imidazo[4,5-c]pyridin-2-yl)-1H-pyrazolo[4,3-b]pyridin-5-yl)-1-methyl-1H-pyrazol-3-yl)methanol] | > 10 µM | 0% | > 10 µM | > 10 µM | 9.1% | 19.6%
8 | CC(C)CC(=O)Nc1cncc(-c2ccc3[nH]nc(-c4nc5c(-c6ccc(Cl)s6)nccc5[nH]4)c3n2)c1 [Compound 1037, N-(5-(3-(4-(5-Chlorothiophen-2-yl)-1H-imidazo[4,5-c]pyridin-2-yl)-1H-pyrazolo [4,3-b]pyridin-5-yl)pyridin-3-yl)-3-methylbutanamide] | > 10 µM | 18.1% | 1.16 µM | 0.719 µM | – | –
9 | CC(C)C(=O)Nc1cncc(-c2ccc3[nH]nc(-c4nc5c(-c6cccnc6)nccc5[nH]4)c3n2)c1 [Compound 93, N-(5-(3-(4-(Pyridin-3-yl)-1H-imidazo[4,5-c]pyridin-2-yl)-1H-pyrazolo[4,3-b]pyridin-5-yl)pyridin-3-yl)isobutyramide] | > 10 µM | 25.1% | > 10 µM | > 10 µM | 5.9% | 25.1%
10 | CC(C)Nc1cncc(-c2ccc3[nH]nc(-c4nc5c(-c6ccoc6)nccc5[nH]4)c3n2)c1 [Compound 320, 5-(3-(4-(Furan-3-yl)-1H-imidazo[4,5-c]pyridin-2-yl)-1H-pyrazolo[4,3-b]pyridin-5-yl)-N-isopropylpyridin-3-amine] | 0.482 µM | – | 0.439 µM | 0.356 µM | – | –
11 | Clc1ccc(-c2nccc3[nH]c(-c4n[nH]c5ccc(-c6cncc(CN7CCCC7)c6)nc45)nc23)s1 [Compound 1049, 3-(4-(5-Chlorothiophen-2-yl)-1H-imidazo[4,5-c]pyridin-2-yl)-5-(5-(pyrrolidin-1-ylmethyl)pyridin-3-yl)-1H-pyrazolo [4,3-b]pyridine] | > 10 µM | 13.2% | 0.926 µM | 1.58 µM | – | –
12 | O=C(CC1CCNCC1)Nc1cncc(-c2ccc3[nH]nc(-c4nc5c(-c6ccsc6)nccc5[nH]4)c3n2)c1 [Compound 673, 2-(Piperidin-4-yl)-N-(5-(3-(4-(thiophen-3-yl)-1H-imidazo[4,5-c]pyridin-2-yl)-1H-pyrazolo[4,3-b]pyridin-5-yl)pyridin-3-yl)acetamide] | > 10 µM | 40.5% | > 10 µM | > 10 µM | 6.6% | 22.6%
13 | CC(C)(C)C(=O)Nc1cncc(-c2ccc3[nH]nc(-c4nc5c(-c6ccc(Cl)s6)nccc5[nH]4)c3n2)c1 [Compound 1043, N-(5-(3-(4-(5-Chlorothiophen-2-yl)-1H-imidazo[4,5-c]pyridin-2-yl)-1H-pyrazolo[4,3-b]pyridin-5-yl)pyridin-3-yl)pivalamide] | > 10 µM | 0% | 3.34 µM | 1.06 µM | – | –
14 | c1cc2[nH]c(-c3n[nH]c4ccc(-c5cncc(CNCC6CCCC6)c5)nc34)nc2c(-c2ccoc2)n1 [Compound 333, 1-Cyclopentyl-N-((5-(3-(4-(furan-3-yl)-1H-imidazo[4,5-c]pyridin-2-yl)-1H-pyrazolo [4,3-b]pyridin-5-yl)pyridin-3-yl)methyl)methanamine] | > 10 µM | 32.3% | 3.42 µM | 3.82 µM | – | –
